Assay results from ChEMBL document CHEMBL1155431, “Antimicrobial activity of long-chain (E)-3-alken-2-ones” (2010).
Values after ≈ are worked out from the molar mass of the structure shown. Active and inactive are the calls of the source. The calls are words filed in the database; no cut-off is given here.

Key:
[1] = system: Malassezia; assay: Antimicrobial activity against Pityrosporum ovale ATCC 14521 after 3 days by two fold serial broth dilution method; format: functional; details: ATCC 14521, 72 h
[2] = system: Escherichia coli; assay: Antimicrobial activity against Escherichia coli ATCC 9637 after 2 days by two fold serial broth dilution method; format: functional, organism-based
[3] = system: Pseudomonas aeruginosa; assay: Antimicrobial activity against Pseudomonas aeruginosa ATCC 10145 after 2 days by two fold serial broth dilution method; format: functional, organism-based
[4] = system: Saccharomyces cerevisiae; assay: Antimicrobial activity against Saccharomyces cerevisiae ATCC 7754 after 2 days by two fold serial broth dilution method; format: functional, organism-based
[5] = system: Klebsiella aerogenes; assay: Antimicrobial activity against Enterobacter aerogenes ATCC 13048 after 2 days by two fold serial broth dilution method; format: functional, organism-based

CCCCCCCC/C=C/C(C)=O
MIC [1]: 100 µg/mL (≈ 549 µM)

CCCCCCCCCCCC/C=C/C(C)=O
MIC [1]: > 800 µg/mL

CCCCCCCCCC/C=C/C(C)=O
MIC [1]: 100 µg/mL (≈ 475 µM)

CCCCCCC/C=C/C(C)=O
MIC [1]: 100 µg/mL (≈ 594 µM)

CCCCCCCCCCC/C=C/C(C)=O
MIC [1]: 400 µg/mL (≈ 1780 µM)

CCCCCCCCC/C=C/C(C)=O
Activity [2]: inactive
Activity [3]: inactive
Activity [4]: inactive
Activity [5]: inactive
MIC [1]: 100 µg/mL (≈ 509 µM)

CCCCCCCCCCCCC/C=C/C(C)=O
MIC [1]: > 800 µg/mL
